Source: patent publication US5622933A, “Multiple branch peptide constructions for use against HIV” (priority 1993, dated 1997)
Read-outs that look alike come from different tables or passages of the source. Ends that are not written are not given here.

Columns and labels:
HIV-2Rod = test: Syncytia formation blockage (chronically infected cells + uninfected Molt-4 cells); format: cell-based; parameters: key: -: The presence of syncytia is indicated by + signs, allocated in approximate proportion to the quantities counted; The presence of syncytia is indicated by + signs, allocated in approximate proportion to the quantities counted; ++: The presence of syncytia is indicated by + signs, allocated in approximate proportion to the quantities counted; +++: The presence of syncytia is indicated by + signs, allocated in approximate proportion to the quantities counted; ++++: The presence of syncytia is indicated by + signs, allocated in approximate proportion to the quantities counted
Method: (§1) CEM or C8166 cells were chronically infected with HIV-1 Lai or HIV-2 Rod, or HIV-1MN, respectively. Infected cells (1×10^4) were incubated for 2 hours with various concentrations of MBPCs in 96-well plates. Uninfected Molt-4 cells (4×10^4) were then added in […]. Syncytia were counted after 18 hours at 37° C.

HIV-1Lai = test: as above; format: cell-based; parameters: key: -: The presence of syncytia is indicated by + signs, allocated in approximate proportion to the quantities counted; The presence of syncytia is indicated by + signs, allocated in approximate proportion to the quantities counted; ++: The presence of syncytia is indicated by + signs, allocated in approximate proportion to the quantities counted; +++: The presence of syncytia is indicated by + signs, allocated in approximate proportion to the quantities counted; ++++: The presence of syncytia is indicated by + signs, allocated in approximate proportion to the quantities counted
Method: as §1

HIV-1MN = test: as above; format: cell-based; parameters: key: -: The presence of syncytia is indicated by + signs, allocated in approximate proportion to the quantities counted; The presence of syncytia is indicated by + signs, allocated in approximate proportion to the quantities counted; ++: The presence of syncytia is indicated by + signs, allocated in approximate proportion to the quantities counted; +++: The presence of syncytia is indicated by + signs, allocated in approximate proportion to the quantities counted; ++++: The presence of syncytia is indicated by + signs, allocated in approximate proportion to the quantities counted
Method: as §1

HIV = test: Inhibition of syncytia formation induced by HIV (summary statements); format: cell-based
Method: as §1

HIV-1 or HIV-2 = test: Infection of human PBLs (RT activity, p24gag); format: cell-based; details: MBPC 10^-5 M; days 10 and 13 after infection; culture supernatants
Method: Peripheral blood lymphocytes (PBLs) were obtained from healthy donors, stimulated with phytohemagglutinin, and cultivated in RPMI 1640 containing 10% fetal calf serum and interleukin-2 (complete medium). Samples of 6×10^6 cells/ml were either treated or not treated with the indicated MBPC at a concentration of 10^-5 M and exposed to HIV-1 or HIV-2 (100 TCID50) for 1 hour at 37° C. in the continued presence of MBPCs. After thorough washing, PBLs were cultured in complete medium with 10^-5 M of the corresponding MBPC. The state of infection was assessed by determination of RT activity (for both HIV-1 and HIV-2 isolates) and HIV-1 p24^gag measurements (Coulter kit, cut-off 10 pg/ml) in the case of HIV-1 isolates 10 days post-infection. The MBPC treatment used were as follows: 1-none; 2- [GPGRAF]8 -MLC; 3-[[…]]4 -MLC; 4- [[…]]4 -MLC (a non-HIV related MBPC) (MLC indicates a core lysine structure). The results shown in FIGS. 2A-2C are representative of three separate experiments. The nature of the viral isolates used was checked by PCR (HIV-1 versus HIV-2 isolates) and RIPA for discriminating between HIV-1 (LAI) and HIV-1 (NDK).

rabbits = test: ELISA of sera from rabbits immunized with MBPC.1 or MBPC.2; format: in vivo, rabbit; details: for reactivity of sera from rabbits immunized with the MBPC (ELISA, FIG. 6): against MBPC.1, MBPC.2, Mono.1 and V3 Cons; for antibody response in rabbits: rabbit, in vivo
Method: Sera from rabbits immunized with either MBPC.1 or MBPC.2 were tested in ELISA for their ability to bind MBPC.1, MBPC.2, Mono.1 (the monomeric form of MBPC.1) and the North American/European consensus V3 sequence (V3 Cons, or Cs).
In another set of experiments, sera from rabbits immunized with either MBPC.1 or MBPC.2 were tested (at 1/100 and 1/1000 dilutions) against various concentrations of MBPC.1, MBPC.2 and V3 Cons. FIGS. 7A, 7B and 7C clearly indicate that sera from rabbits immunized with MBPC.2 reacted in a dose dependant manner against MBPC.2 and V3 Cons. No reactivity against MBPC.1 was detected.

HIV-1 (89.6) = test: Infection of and syncytia formation in human primary macrophages; format: cell-based; details: 5×10^-5 M; for inhibition of macrophage infection, in words: 10,000 TCID50
Method: MBPCs were also evaluated for their ability to block the infection of human primary macrophages by a highly cytopathic macrophage-tropic isolate, HIV-1 (89.6). Mononuclear cells were isolated from leukophoresis units enriched for monocytes by Ficoll-Hypaque density separation. Macrophages were purified by adherence to plastic in RPMI 1640 supplemented with 10% fetal calf serum and 5% human AB serum. […] 5×10^5 cells were treated for 45 minutes with the indicated MBPC at concentrations of 5×10^-5 M and subsequently exposed to 10,000 TCID50 of the macrophage-tropic isolate HIV (89.6). […] After thorough washing, the cells were fed again with medium and analyzed for HIV-1 p24^gag production and syncytia formation 4 days post-infection.

HIV-1 (IIIB) = format: cell-based; details: for number of syncytia (HIV-1 induced cell fusion): 24 hours
Description: 50×10^3 8E5 cells chronically infected with a RT-deficient HIV-I (IIIB) isolate, were co-cultivated with 150×10^3 phytohemagglutinin (PHA) stimulated human peripheral blood lymphocytes (PBLs) in the presence of the indicated peptide in 96-well plates. The MBPCs used are described by the peptides attached, and the number thereof, to a core lysine matrix, which is designated HLC. All amino acids used for this experiment were in dextro form.

In the case of (GPGRAF)8 -(K)4 -(K)2 -K-βA-OH [MBPC.3], the Syncytia formation (HIV-2Rod; MBPC Conc. 5 × 10^-6 M) is reported as “-”, the Syncytia formation (HIV-2Rod; MBPC Conc. 10^-6 M) is reported as “-” and the Syncytia formation (HIV-2Rod; MBPC Conc. 10^-7 M) is reported as “+”. For the same substance, the Syncytia formation (HIV-1Lai; MBPC Conc. 5 × 10^-6 M) was “-”, the Syncytia formation (HIV-1Lai; MBPC Conc. 10^-6 M) was “+” and the Syncytia formation (HIV-1Lai; MBPC Conc. 10^-7 M) was “++++”. The Syncytia formation (HIV-1MN; MBPC Conc. 5 × 10^-6 M) was “-”, the Syncytia formation (HIV-1MN; MBPC Conc. 10^-6 M) was “+” and the Syncytia formation (HIV-1MN; MBPC Conc. 10^-7 M) was “+++”. For the same substance, the “MBPC concentration with which inhibiting effect on syncytia formation was observed in vitro” value (HIV) was “around 10^-6 M”, the “RT activity lower in MBPCs-treated samples than control samples” value (HIV-1 or HIV-2) was “more than 90%” and the “reactivity of sera from rabbits immunized with the MBPC (ELISA, FIG. 6)” value (rabbits) was “did not react against MBPC.1 (except for a weak reactivity of the serum from rabbit A)”. The “antibody response in rabbits” value (rabbits) was “did not induce a significant antibody response”, the “inhibition of macrophage infection, in words” value (HIV-1 (89.6)) was “able to inhibit infection” and the “giant cells (syncytia) in macrophage cultures” value (HIV-1 (89.6); pretreated, 4 days post-infection) was “very few giant cells”. The “number of syncytia (HIV-1 induced cell fusion)” value (“number of syncytia” for short) (HIV-1 (IIIB); 5 × 10^-5 M) was “- (- indicates the total absence of syncytia in the well)”, the “number of syncytia” value (HIV-1 (IIIB); 5 × 10^-6 M) was “- (- indicates the total absence of syncytia in the well)” and the “inhibition of syncytia formation, in words” value (HIV-1 (IIIB); 5×10^-7 M) was “marked inhibition of syncytia formation”. The “number of syncytia” value (HIV-1 (IIIB); 5 × 10^-7 M) was “±”.
With “(RKSIHIGPGRAFYT)4 -(K)2 -K-βA-OH (also: four copies on lysine core (K)2-K-βA-OH) [MBPC.5, tetradecapeptide MBPC]” the Syncytia formation (HIV-2Rod; MBPC Conc. 5 × 10^-6 M) was “-”, the Syncytia formation (HIV-2Rod; MBPC Conc. 10^-6 M) was “-” and the Syncytia formation (HIV-2Rod; MBPC Conc. 10^-7 M) was “+”. The Syncytia formation (HIV-1Lai; MBPC Conc. 5 × 10^-6 M) was “-”, the Syncytia formation (HIV-1Lai; MBPC Conc. 10^-6 M) was “+” and the Syncytia formation (HIV-1Lai; MBPC Conc. 10^-7 M) was “++++”. For the same substance, the Syncytia formation (HIV-1MN; MBPC Conc. 5 × 10^-6 M) was “-”, the Syncytia formation (HIV-1MN; MBPC Conc. 10^-6 M) was “++” and the Syncytia formation (HIV-1MN; MBPC Conc. 10^-7 M) was “++++”. For the same substance, the “inhibiting effect on syncytia formation, in words” value (HIV) was “inhibiting effect at a slightly higher concentration”, the “RT activity lower in MBPCs-treated samples than control samples” value (HIV-1 or HIV-2) was “more than 90%” and the “reactivity of sera from rabbits immunized with the MBPC (ELISA, FIG. 6)” value (rabbits) was “recognized significantly MBPC.2 and V3 Cons”. The “antibody response in rabbits” value (rabbits) was “did invoke such a response”, the “inhibition of macrophage infection, in words” value (HIV-1 (89.6)) was “able to inhibit infection” and the “inhibition of syncytia formation, in words” value (HIV-1 (IIIB); 5×10^-6 M) was “able to inhibit syncytia formation”. For the same substance, the “number of syncytia” value (HIV-1 (IIIB); 5 × 10^-6 M) was “- (- indicates the total absence of syncytia in the well)” and the “number of syncytia” value (HIV-1 (IIIB); 5 × 10^-7 M) was “+++”.
